US8541189B2, “Method for measuring the plasmine activity of microparticles present in a sample of blood or a blood component” (Institut National de la Sante et de la Recherche Medicale …, priority 2007, dated 2013)

Target: plasminogen (Homo sapiens, UniProt P00747)
Test: Plasmin-generation test, EMPs in suspension
Assay type: biochemical
Conditions: 5 · 10^4 EMP/50 μL + EACA; 1 μM plasminogen; 0.75 mM CBS0065
Method: In the round-bottomed wells of 96-well plates made of PVC, different EMP concentrations in suspension in PBS, to which 0.8% bovine serum albumin (PBSA) had been added, were incubated with 50 μl of a mixture of 1 μM plasminogen and (methyl-malonyl)-hydroxypropylarginine-p-nitroanilide (CBS0065, Stag°, Asniéres, France), chromogenic substrate selective for plasmin, at 0.75 mM.
An identical volume of supernatant from the last washing of the EMPs was used as a control.
The microplate was placed in the microplate readers and the kinetics of the appearance of the plasmin were monitored for 9 hours using a spectrophotometer suitable for reading multiwell plates (MX5000. Dynex) at 37° C. by measurement of the modifications of the absorbance at 405 nm produced by the release of the p-nitroaniline as a function of time.

Sequence of plasminogen (P00747 20-810 limits assumed, species assumed): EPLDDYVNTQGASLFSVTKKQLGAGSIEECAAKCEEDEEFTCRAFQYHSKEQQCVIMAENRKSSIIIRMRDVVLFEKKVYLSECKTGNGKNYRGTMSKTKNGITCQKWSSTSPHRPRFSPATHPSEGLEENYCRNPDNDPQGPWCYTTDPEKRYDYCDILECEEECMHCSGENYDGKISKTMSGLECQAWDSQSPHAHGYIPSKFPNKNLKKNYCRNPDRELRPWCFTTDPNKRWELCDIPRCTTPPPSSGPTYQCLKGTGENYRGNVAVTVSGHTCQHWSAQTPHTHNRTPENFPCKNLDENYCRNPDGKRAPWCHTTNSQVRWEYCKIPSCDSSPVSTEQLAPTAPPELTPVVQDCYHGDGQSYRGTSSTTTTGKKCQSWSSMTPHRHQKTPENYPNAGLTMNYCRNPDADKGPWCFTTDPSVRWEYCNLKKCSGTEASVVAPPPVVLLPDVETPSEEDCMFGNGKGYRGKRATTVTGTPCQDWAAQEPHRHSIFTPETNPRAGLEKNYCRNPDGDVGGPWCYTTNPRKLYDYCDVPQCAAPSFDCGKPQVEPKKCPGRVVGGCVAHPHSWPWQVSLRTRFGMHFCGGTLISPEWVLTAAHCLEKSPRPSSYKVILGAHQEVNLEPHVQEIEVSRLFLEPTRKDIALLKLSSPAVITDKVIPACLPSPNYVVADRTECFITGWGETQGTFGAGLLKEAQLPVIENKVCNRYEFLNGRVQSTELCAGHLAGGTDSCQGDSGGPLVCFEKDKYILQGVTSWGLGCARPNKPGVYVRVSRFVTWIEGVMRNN

## NCCCCCC(=O)O [EACA, ε-aminocaproic acid]
  A405 nm/min: 0.6 A405 nm/min
